US5866118A, “Polypeptides having 3g6-phytase activity from thermomyces and nucleic acids encoding same” (Novo Nordisk Biotech, Inc., priority 1997, dated 1999)

Tests used:
[1] = system: Thermomyces lanuginosus CBS 586.94 phytase, purified recombinant, SEQ ID NO:2; assay: Steady-state kinetics by substrate titration, assay of inorganic phosphate liberated from corn phytic acid; assay type: biochemical
Method: (§1) All characterizations were performed with the purified recombinant Thermomyces lanuginosus CBS 586.94 phytase described in Example 11. Comparisons were also made where noted with a standard of an Aspergillus niger (ficuum) phytase obtained from Novo Nordisk A/S, Bagsverd, Denmark.
(§2) Enzyme kinetics studies. Enzyme kinetics studies were performed on the Thermomyces phytase and the Aspergillus niger phytase. The studies were accomplished by assay of inorganic phosphate liberated from corn phytic acid (Sigma Chemical Co., St. Louis, Mo.). Standard enzyme reactions were carried out for 30 minutes at 37° C. and pH 5.5 in 0.5% w/w phytic acid. The reaction was quenched by the addition of an equal volume of 15% w/w trichloroacetic acid. After cooling, 100 μl of the resulting mixture was diluted into 1.0 ml of glass distilled water. The sample was incubated at 50° C. for 5 minutes. Color reagent (1.0 ml) was added and the 50° C. incubation was continued for 15 minutes. The absorbance of a 200 μl aliquot was measured at 690 nm with a Molecular Devices Thermomax Microplate Reader. The color reagent is composed of 6N sulfuric acid: water: 2.5% (w/v) ammonium heptamolybdate, tetrahydrate: 10% ascorbate (aqueous) in a ratio of 1:2:1:1 and prepared fresh on a daily basis. Quantitation was based on a standard curve generated with a 10 mM sodium monobasic phosphate standard. One unit U) is defined as a μmole of inorganic phosphate released per minute at 37° C. and pH 5.5.
Steady-state kinetics measurements were made by substrate titration. Phytate concentrations were 2.16, 1.08, 0.541, 0.216, 0.108, and 0.0758 mM for the purposes of Km determination. Phytate concentrations of 1.08, 0.541, 0.216 and 0.108 mM in the presence or absence of 1 mM sodium monobasic phosphate were used for the purpose of evaluating product inhibition.

Aspergillus phytase = target: T1, Aspergillus phytase (Aspergillus niger, UniProt P34752); details: Ullah, 1988, Preparative Biochemistry 18: 443-458; read-out: Ki (phosphate, competitive inhibitor); cited from earlier work
T1 sequence (P34752 24-467): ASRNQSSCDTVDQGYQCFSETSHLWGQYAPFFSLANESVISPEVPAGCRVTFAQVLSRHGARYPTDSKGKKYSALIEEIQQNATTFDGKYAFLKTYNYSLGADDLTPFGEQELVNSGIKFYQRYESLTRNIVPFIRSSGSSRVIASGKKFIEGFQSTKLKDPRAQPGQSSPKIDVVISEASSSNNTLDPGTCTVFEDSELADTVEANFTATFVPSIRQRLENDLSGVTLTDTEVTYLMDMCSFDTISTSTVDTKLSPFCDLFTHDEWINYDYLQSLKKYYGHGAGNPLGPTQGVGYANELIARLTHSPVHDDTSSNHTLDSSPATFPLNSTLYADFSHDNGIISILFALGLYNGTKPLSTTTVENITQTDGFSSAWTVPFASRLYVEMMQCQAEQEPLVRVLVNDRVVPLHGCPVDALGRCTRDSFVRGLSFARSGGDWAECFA

[2] = substrate: O=P(O)(O)O[C@H]1[C@H](OP(=O)(O)O)[C@@H](OP(=O)(O)O)[C@H](OP(=O)(O)O)[C@@H](OP(=O)(O)O)[C@H]1OP(=O)(O)O; assay: Steady-state kinetics by substrate titration, assay of inorganic phosphate liberated from corn phytic acid; assay type: biochemical, Aspergillus niger (ficuum); details: other: 37° C., pH 5.5, phytate 0.0758-2.16 mM
Method: as §1
as §2, with “One unit U) is defined as a μmole of inorganic phosphate released per minute at 37° C. and pH 5.5.” left out

For `O=P([O-])(O)O.[Na+]` [phosphate, sodium monobasic phosphate], the “product inhibition with 1 mM phosphate present” value ([1]; 1 mM sodium monobasic phosphate, phytate 0.108-1.08 mM) is given as “failed to reveal any type of inhibition”, the Ki ([1]; estimated, phytate 0.108-1.08 mM with or without 1 mM sodium monobasic phosphate) is given as over 3000 µM and the Ki (Aspergillus phytase) is given as 1900 µM.

Molecule `O=P(O)(O)O[C@H]1[C@H](OP(=O)(O)O)[C@@H](OP(=O)(O)O)[C@H](OP(=O)(O)O)[C@@H](OP(=O)(O)O)[C@H]1OP(=O)(O)O` [phytate, myo-inositol hexakisphosphate] has a Km ([1]; 37° C., pH 5.5, phytate 0.0758-2.16 mM, read-out: apparent Km with respect to phytate) of about 110 µM.

B1: Aspergillus niger (ficuum) phytase, standard obtained from Novo Nordisk A/S (Aspergillus niger) (protein)
chain: ASRNQSSCDTVDQGYQCFSETSHLWGQYAPFFSLANESVISPEVPAGCRVTFAQVLSRHGARYPTDSKGKKYSALIEEIQQNATTFDGKYAFLKTYNYSLGADDLTPFGEQELVNSGIKFYQRYESLTRNIVPFIRSSGSSRVIASGKKFIEGFQSTKLKDPRAQPGQSSPKIDVVISEASSSNNTLDPGTCTVFEDSELADTVEANFTATFVPSIRQRLENDLSGVTLTDTEVTYLMDMCSFDTISTSTVDTKLSPFCDLFTHDEWINYDYLQSLKKYYGHGAGNPLGPTQGVGYANELIARLTHSPVHDDTSSNHTLDSSPATFPLNSTLYADFSHDNGIISILFALGLYNGTKPLSTTTVENITQTDGFSSAWTVPFASRLYVEMMQCQAEQEPLVRVLVNDRVVPLHGCPVDALGRCTRDSFVRGLSFARSGGDWAECFA
notes: purchased Novo Nordisk A/S, Bagsverd, Denmark
Molecule B1 has a Km [2] of 200 µM.
